Assay results as given in patent US20130131075A1, “NEW COMPOUNDS” (Boehringer Ingelheim International GmbH, priority 2009, published 2013).
pKi: −log10 of the molar value.

Target: T1, cynomolgus BK1-receptor (Macaca fascicularis, UniProt Q3BCU0)
T1 construct: expressed in transfected cells; host or cells: CHO cells (homogenate)
T1 sequence (Q3BCU0 1-352): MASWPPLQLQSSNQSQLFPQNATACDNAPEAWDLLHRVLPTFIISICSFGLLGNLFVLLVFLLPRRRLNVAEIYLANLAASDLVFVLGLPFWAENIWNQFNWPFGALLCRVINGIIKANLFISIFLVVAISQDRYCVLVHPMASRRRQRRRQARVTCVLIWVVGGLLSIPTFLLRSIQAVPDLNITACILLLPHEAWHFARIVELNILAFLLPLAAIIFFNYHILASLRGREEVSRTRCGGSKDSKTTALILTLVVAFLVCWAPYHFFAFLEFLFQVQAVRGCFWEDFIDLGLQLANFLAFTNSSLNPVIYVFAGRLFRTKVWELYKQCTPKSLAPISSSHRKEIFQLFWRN
Test: cynoBK1-receptor binding assay
Conditions: CHO cells expressing cynomolgus BK1-receptor, radioligand kallidine (DesArg10,Leu9)
Experimental: Description of the Method of Binding the cynoBK1-Receptor
CHO cells that express the cynomolgus BK1-receptor are cultivated in “HAM'S F-12 Medium”. The medium is removed from confluent cultures, the cells are washed with PBS buffer, scraped off or detached using Versene and isolated by centrifuging. Then the cells are homogenised in suspension, the homogenate is centrifuged and resuspended. After the protein content has been determined 200 μl of the homogenate (50 to 250 μg protein/assay) are incubated for 60-180 minutes at ambient temperature with 0.5 to 5.0 nM kallidine (DesArg10,Leu9), [3,4-Prolyl-3,43H(N)] and increasing concentrations of the test substance in a total volume of 250 μl. The incubation is stopped by rapid filtration through GF/B glass fibre filters that have been pre-treated with polyethyleneimine (0.3%). The radioactivity bound to the protein is measured with a TopCount NXT. The radioactivity bound in the presence of 1.0 μM kallidine (DesArg10) is defined as non-specific binding. The concentration binding curve may be analysed using computer-aided non-linear curve fitting to determine the corresponding Ki value for the test substance.
Test results of the cynoBK1-receptor binding assay: […]

Structure (SMILES)	inhibition at 10 µM (at 10 μgmol/L) [%]	pKi	% inhibition at 10 μgmol/L (at 10 μgmol/L) [%]
COC1CC(C(=O)N[C@@]2(C(=O)NCc3ccc(Nc4ccccc4C(F)(F)F)cc3)CCOC2)C1 (stereo partly shown) [(75)]	71		
Cc1ncc(C(=O)N[C@@]2(C(=O)NCc3ccc(Nc4ccc(F)cc4C(F)(F)F)cn3)CCOC2)cn1 [(307)]		7.27	
O=C(N[C@@]1(C(=O)NCc2ccc(Nc3ccc(F)cc3C(F)(F)F)cc2)CCOC1)c1cnc2[nH]ccc2c1 [(383)]		6.65	
CNc1cncc(C(=O)N[C@@]2(C(=O)NCc3ncc(Nc4ccc(Cl)cc4C(F)(F)F)cc3F)CCOC2)c1 [(319)]		7.24	
O=C(NC1(C(=O)NCc2ccc(Nc3ccccc3C(F)(F)F)cc2)CC1)C(F)(F)F [(23)]	110		
Cc1cc(Nc2ccc(F)cc2C(F)(F)F)cnc1CNC(=O)[C@]1(NC(=O)c2cncnc2)CCOC1 [(324)]		7.66	
N#Cc1ccc(F)cc1Nc1ccc(CNC(=O)C2(NC(=O)c3cncnc3)CC2)cc1 [(114)]	77	< 6.30	
O=C(CC(F)(F)F)NC1(C(=O)NCc2ccc(Nc3ccccc3C(F)(F)F)cc2)CC1 [(7)]	100		
Cc1ncc(C(=O)N[C@@]2(C(=O)NCc3ccc(Nc4ccc(Cl)cc4C(F)(F)F)cc3)CCOC2)cn1 [(317)]		7.52	
Cc1ncncc1C(=O)N[C@@]1(C(=O)NCc2ccc(Nc3ccccc3C(F)(F)F)cc2)CCOC1 [(77)]	96		
O=C(N[C@@]1(C(=O)NCc2ccc(Nc3ccccc3C(F)(F)F)cc2)CCOC1)c1cncnc1 [(155)]			101
O=C(N[C@@]1(C(=O)NCc2ccc(Nc3ccccc3C(F)(F)F)cc2)CCOC1)c1cnc(O)nc1 [(90)]	109	6.87	
O=C(NC1(C(=O)NCc2ccc(Nc3ccc(F)cc3C(F)(F)F)cn2)CC1)c1ccc(C(F)(F)F)nc1 [(254)]		6.59	
CC(NC(=O)C1(NC(=O)c2cncc(N)c2)CC1)c1ccc(Nc2c(F)cccc2C(F)(F)F)cn1 (stereo not shown) [(124)]	112	7.48	
Cc1cncc(C(=O)NC2(C(=O)NCc3ccc(Nc4ccc(F)cc4C(F)(F)F)cn3)CC2)c1 [(302)]		7.38	
CN(C)c1ccc(C(=O)NC2(C(=O)NCc3ccc(Nc4ccc(Br)cc4C(F)(F)F)cn3)CC2)cn1 [(268)]		6.55	
O=C(NC1(C(=O)NCc2ccc(Nc3ccccc3C(F)(F)F)cc2)CC1)c1cncnc1 [(4)]	109		
CN(C)CCCCC(=O)NC1(C(=O)NCc2ccc(Nc3ccccc3C(F)(F)F)cc2)CC1 [(10)]	58		
CCOc1ncc(C(=O)NC2(C(=O)NCc3ccc(Nc4ccc(Cl)cc4C(F)(F)F)cn3)CC2)cn1 [(390)]		8.14	
CC(NC(=O)C1(NC(=O)c2cncnc2)CC1)c1ccc(Nc2ccc(Br)cc2C(F)(F)F)cn1 (stereo not shown) [(180)]	106	8.80	
Cc1ccc(Nc2ccc(CNC(=O)C3(NC(=O)c4cncnc4)CC3)nc2)c(C(F)(F)F)c1 [(51)]	112	7.42	

Structure (SMILES)	inhibition at 10 µM (at 10 μgmol/L) [%]	pKi	% inhibition at 10 μgmol/L (at 10 μgmol/L) [%]
O=C(NC1(C(=O)NCc2ncc(Nc3ccc(F)cc3C(F)(F)F)cc2Cl)CC1)c1cncnc1 [(187)]	100		
O=C1CCC(C(=O)N[C@@]2(C(=O)NCc3ccc(Nc4ccccc4C(F)(F)F)cc3)CCOC2)C1 (stereo partly shown) [(78)]	73		
COc1ccc(C(=O)NC2(C(=O)NCc3ccc(Nc4ccc(Br)cc4C(F)(F)F)cn3)CC2)cn1 [(235)]		6.31	
COc1cc(OC)cc(C(=O)N[C@@]2(C(=O)NCc3ccc(Nc4ccccc4C(F)(F)F)cc3)CCOC2)c1 [(103)]	87		
O=C(NC1(C(=O)NCc2ncc(Nc3ccc(Br)cc3C(F)(F)F)cc2F)CC1)c1cncnc1 [(179)]	101		
Nc1cncc(C(=O)N[C@@]2(C(=O)NCc3ccc(Nc4ccc(Cl)cc4C(F)(F)F)cc3)CCOC2)c1 [(321)]		7.24	
O=C(NC1(C(=O)NCc2ccc(Nc3ccc(F)cc3)cc2)CC1)c1cncnc1 [(37)]	77	< 6.30	
COc1ncc(C(=O)N[C@@]2(C(=O)NCc3ncc(Nc4ccc(F)cc4C(F)(F)F)cc3Cl)CCOC2)cn1 [(230)]		8.21	
Nc1cncc(C(=O)NC2(C(=O)NCc3ccc(Nc4ccccc4C(F)(F)F)cc3)COC2)c1 [(273)]		6.85	
O=C(NC1(C(=O)NCc2ccc(Nc3ccc(Cl)cc3C(F)(F)F)cn2)CC1)c1cnc(NC2CC2)nc1 [(379)]		8.26	
COc1ncc(C(=O)N[C@@]2(C(=O)NCc3ccc(Nc4ccc(Cl)cc4C(F)(F)F)cc3)CCOC2)cn1 [(333)]		7.05	
Cc1ncc(C(=O)N[C@@]2(C(=O)NCc3ncc(Nc4ccccc4C(F)(F)F)cc3C)CCOC2)cn1 [(366)]		7.48	
Nc1cncc(C(=O)N[C@@]2(C(=O)NCc3ncc(Nc4ccc(F)cc4C(F)(F)F)cc3Cl)CCOC2)c1 [(219)]		8.05	
Cn1ccc(C(=O)NC2(C(=O)NCc3ncc(Nc4c(F)cccc4C(F)(F)F)cc3F)CC2)cc1=O [(132)]	98	6.74	
Nc1ccc(C(=O)NC2(C(=O)NCc3ccc(Nc4ccc(Cl)cc4C(F)(F)F)cn3)CC2)cn1 [(206)]		8.29	
O=C(N[C@@]1(C(=O)NCc2ncc(Nc3ccc(F)cc3C(F)(F)F)cc2F)CCOC1)c1cncnc1 [(153)]	106	8.01	
CN(C)CCC(=O)NC1(C(=O)NCc2ccc(Nc3ccccc3C(F)(F)F)cc2)CC1 [(8)]	75		
O=C(NC1(C(=O)NCc2ccc(Nc3ccc(OCC(F)F)cc3C(F)(F)F)cc2)CC1)c1cncnc1 [(118)]	109	7.19	
CNc1ccc(C(=O)NC2(C(=O)NCc3ccc(Nc4ccc(F)cc4C(F)(F)F)cn3)CC2)cn1 [(377)]		7.35	
O=C(N[C@@]1(C(=O)NCc2ccc(Nc3ccc(F)cc3C(F)(F)F)cc2)CCOC1)c1cncs1 [(299)]		6.65	
COc1cc(C(=O)N[C@@]2(C(=O)NCc3ccc(Nc4ccccc4C(F)(F)F)cc3)CCOC2)ccn1 [(79)]	104	6.53	

Structure (SMILES)	inhibition at 10 µM (at 10 μgmol/L) [%]	pKi	% inhibition at 10 μgmol/L (at 10 μgmol/L) [%]
CN(C)c1ncc(C(=O)NC2(C(=O)NCc3ccc(Nc4ccc(Cl)cc4C(F)(F)F)cn3)CC2)cn1 [(210)]		6.73	
O=C(N[C@@]1(C(=O)NCc2ccc(Nc3ccc(Br)cc3C(F)(F)F)cn2)CCOC1)c1cncnc1 [(223)]		7.12	
O=C(NC1(C(=O)NCc2ccc(Nc3ccccc3)cc2)CC1)c1cncnc1 [(3)]	65		
O=C(NC1(C(=O)NCc2ccc(Nc3ccc(Cl)cc3C(F)(F)F)cn2)CC1)c1ccns1 [(357)]		7.36	
CNc1cncc(C(=O)NC2(C(=O)NCc3ccc(Nc4ccc(F)cc4C(F)(F)F)cn3)CC2)n1 [(168)]	90	6.63	
Nc1cncc(C(=O)N[C@@]2(C(=O)NCc3ncc(Nc4ccc(Cl)cc4C(F)(F)F)cc3F)CCOC2)c1 [(271)]		7.77	
O=C(NC1(C(=O)NCc2ccc(Nc3ccc(Br)cc3C(F)(F)F)cn2)CC1)c1cncnc1 [(54)]	112	8.42	
CNc1ccc(C(=O)NC2(C(=O)NCc3ccc(Nc4ccc(Cl)cc4C(F)(F)F)cn3)CC2)cn1 [(347)]		7.92	
O=C(NC1(C(=O)NCc2ccc(Nc3ccc(Cl)cc3C(F)(F)F)cn2)CC1)c1cnsc1 [(358)]		7.43	
O=C(NC1(C(=O)NCc2ccc(Nc3ccc(F)cc3C(F)(F)F)cc2)CC1)c1cncnc1 [(33)]	110	8.72	
Cc1cc(Nc2ccc(Cl)cc2C(F)(F)F)cnc1CNC(=O)[C@]1(NC(=O)c2cncc(N)c2)CCOC1 [(346)]		7.32	
Cc1ncc(C(=O)N[C@@]2(C(=O)NCc3ncc(Nc4ccc(Cl)cc4C(F)(F)F)cc3Cl)CCOC2)cn1 [(282)]		8.10	
O=C(NC1(C(=O)NCc2ccc(Nc3ccc(Br)cc3C(F)(F)F)cn2)CC1)c1ccnc(O)c1 [(171)]	97		
Cc1cncc(C(=O)NC2(C(=O)NCc3ccc(Nc4ccc(Cl)cc4C(F)(F)F)cn3)CC2)c1 [(353)]		7.28	
CNc1ncc(C(=O)N[C@@]2(C(=O)NCc3ccc(Nc4ccc(F)cc4C(F)(F)F)cc3)CCOC2)cn1 [(289)]		7.68	
Nc1ncc(C(=O)NC2(C(=O)NCc3ccc(Nc4ccc(Cl)cc4C(F)(F)F)cn3)CC2)cn1 [(370)]		8.85	
O=C(NC1(C(=O)NCc2ncc(Nc3c(F)cccc3C(F)(F)F)cc2F)CC1)c1cccc(O)n1 [(136)]	104	7.38	
CC(C)c1ncc(C(=O)NC2(C(=O)NCc3ccc(Nc4ccc(F)cc4C(F)(F)F)cn3)CC2)cn1 [(245)]		7.74	
COc1ncc(C(=O)NC2(C(=O)NCc3ccc(Nc4ccc(F)cc4C#N)cc3)CC2)cn1 [(182)]	99	7.70	
O=C(N[C@@]1(C(=O)NCc2ccc(Nc3ccc(Cl)cc3C(F)(F)F)cc2)CCOC1)c1cnc2[nH]ccc2c1 [(388)]		6.41	
Nc1ccc(C(=O)N[C@@]2(C(=O)NCc3ccc(Nc4ccccc4C(F)(F)F)cc3)CCOC2)cn1 [(57)]	111	7.11	
